In patent US11591341B2 (ALIGOS THERAPEUTICS, INC., priority 2019, dated 2023):
pEC50: −log10 of the molar value.

Test system: HBV
Assay: HBV-DNA Antiviral Assay Using HepG2.117 Cells (intracellular HBV DNA by qPCR)
Format: cell-based, hepatitis B virus (genotype D)
Settings: Hepatitis B virus, HepG2.117
Summary of the method: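 HepG2.117 cells (genotype D HBV, Tet-off) were induced by doxycycline withdrawal and treated for 3 days with 9 concentrations in 4-fold dilution, 2% DMSO final. Intracellular HBV DNA was measured by qPCR against a standard curve, with ATPlite viability read in parallel. EC50, EC90 and CC50 came from fits against the DMSO control.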

Row | Structure (SMILES) | pEC50
1 | O=C(NCc1ccccc1-n1cc(F)cn1)c1c2n(c(=O)n1-c1ccc(OC3CC3)cc1)CCN(C(=O)c1ccc(Br)c(Cl)c1)C2 [Example 421, 7-(4-bromo-3-chloro-benzoyl)-2-[4-(cyclopropoxy)phenyl]-N-[[2-(4-fluoropyrazol-1-yl)phenyl]methyl]-3-oxo-6,8-dihydro-5H-imidazo[1,5-a]pyrazine-1-carboxamide] | > 7.00
2 | COc1ccc(-n2c(C(=O)NCc3ccc(OC(C)C)cc3)c3n(c2=O)CCN(C(=O)c2ccc(Br)c(Cl)c2)C3)cc1 [Example 156, 7-(4-bromo-3-chloro-benzoyl)-N-[(4-isopropoxyphenyl)methyl]-2-(4-methoxyphenyl)-3-oxo-6,8-dihydro-5H-imidazo[1,5-a]pyrazine-1-carboxamide] | 6.30 to 7.00
3 | COc1ccc(-n2c(C(=O)NC3(CO)CC3)c3n(c2=O)CCN(C(=O)c2ccc(Cl)c(Cl)c2)C3)cc1 [Example 106, 7-(3,4-dichlorobenzoyl)-N-[1-(hydroxymethyl)cyclopropyl]-2-(4-methoxyphenyl)-3-oxo-6,8-dihydro-5H-imidazo[1,5-a]pyrazine-1-carboxamide] | < 5.30
4 | COc1ccc(-n2c(C(=O)N[C@@H](CO)c3ccccc3)c3n(c2=O)CCN(C(=O)c2ccc(Br)c(Cl)c2)C3)cc1 (racemic) [Example 144, 7-(4-bromo-3-chloro-benzoyl)-2-(4-methoxyphenyl)-3-oxo-N-[rac-(1R)-2-hydroxy-1-phenyl-ethyl]-6,8-dihydro-5H-imidazo[1,5-a]pyrazine-1-carboxamide] | 5.30 to 6.30
5 | N#Cc1ccc(CNC(=O)c2c3n(c(=O)n2-c2ccc(OC4CC4)cc2)CCN(C(=O)c2ccc(Br)c(Cl)c2)C3)c(F)c1 [Example 307] | 5.30 to 6.30
6 | O=C(NCc1ccccc1)c1c2n(c(=O)n1-c1ccc(N3CC(F)(F)C3)cc1)CCN(C(=O)c1ccc(Br)c(Cl)c1)C2 [Example 391, N-benzyl-7-(4-bromo-3-chloro-benzoyl)-2-[4-(3,3-difluoroazetidin-1-yl)phenyl]-3-oxo-6,8-dihydro-5H-imidazo[1,5-a]pyrazine-1-carboxamide] | 6.30 to 7.00
7 | CCOc1ccc(-n2c(C(=O)NCc3ccccc3)c3n(c2=O)CCN(C(=O)c2ccc(Cl)c(Cl)c2)C3)cc1 [Example 51, N-benzyl-7-(3,4-dichlorobenzoyl)-2-(4-ethoxyphenyl)-3-oxo-6,8-dihydro-5H-imidazo[1,5-a]pyrazine-1-carboxamide] | 5.30 to 6.30
8 | COc1ccc(-n2c(C(=O)NCc3ccc(F)cc3)c3n(c2=O)CCN(C(=O)c2ccc(Cl)c(Cl)c2)C3)cc1 [Example 61, 7-(3,4-dichlorobenzoyl)-N-[(4-fluorophenyl)methyl]-2-(4-methoxyphenyl)-3-oxo-6,8-dihydro-5H-imidazo[1,5-a]pyrazine-1-carboxamide] | 5.30 to 6.30
9 | O=C(NCc1ccccc1-c1ccncn1)c1c2n(c(=O)n1-c1ccc(OCC(F)(F)F)cc1)CCN(C(=O)c1ccc(Br)c(Cl)c1)C2 [Example 423, 7-(4-bromo-3-chloro-benzoyl)-3-oxo-N-[(2-pyrimidin-4-ylphenyl)methyl]-2-[4-(2,2,2-trifluoroethoxy)phenyl]-6,8-dihydro-5H-imidazo[1,5-a]pyrazine-1-carboxamide] | > 7.00
10 | CC(C)Oc1ccc(-n2c(C(=O)NCc3ccccc3)c3n(c2=O)CCN(C(=O)/C=C/c2ccccc2Cl)C3)cc1 [Example 216, N-benzyl-7-[(E)-3-(2-chloropehnyl)prop-2-enoyl]-2-(4-isopropoxyphenyl)-3-oxo-6,8-dihydro-5H-imidazo[1,5-a]pyrazine-1-carboxamide] | < 5.30
11 | COc1ccc(-n2c(C(=O)NCc3ccc(C(C)C)cc3)c3n(c2=O)CCN(C(=O)c2ccc(Br)c(Cl)c2)C3)cc1 [Example 142, 7-(4-bromo-3-chloro-benzoyl)-N-[(4-isopropylphenyl)methyl]-2-(4-methoxyphenyl)-3-oxo-6,8-dihydro-5H-imidazo[1,5-a]pyrazine-1-carboxamide] | 6.30 to 7.00
12 | COc1ccc(-n2c(C(=O)N[C@@H](C)c3ccccc3)c3n(c2=O)CCN(C(=O)c2ccc(Cl)c(Cl)c2)C3)cc1 (stereo in doubt) [Example 70, 7-(3,4-dichlorobenzoyl)-2-(4-methoxyphenyl)-3-oxo-N-[rac-(1S)-1-phenylethyl]-6,8-dihydro-5H-imidazo[1,5-a]pyrazine-1-carboxamide] | 5.30 to 6.30
13 | O=C(NCc1ccc(OC(F)(F)F)cc1F)c1c2n(c(=O)n1-c1ccc(OC3CC3)cc1)CCN(C(=O)c1ccc(Br)c(Cl)c1)C2 [Example 296, 7-(4-bromo-3-chloro-benzoyl)-2-[4-(cyclopropoxy)phenyl]-N-[[2-fluoro-4-(trifluoromethxoy)phenyl]methyl]-3-oxo-6,8-dihydro-5H-imidazo[1,5-a]pyrazine-1-carboxamide] | 5.30 to 6.30
14 | O=C(NCc1ccccc1-n1ccnc1)c1c2n(c(=O)n1-c1ccc(OCC(F)(F)F)cc1)CCN(C(=O)c1ccc(Br)c(Cl)c1)C2 [Example 263, 7-(4-bromo-3-chloro-benzoyl)-N-[(2-imidazol-1-ylphenyl)methyl]-3-oxo-2-[4-(2,2,2-trifluoroethoxy)phenyl]-6,8-dihydro-5H-imidazo[1,5-a]pyrazine-1-carboxamide] | 5.30 to 6.30
15 | COc1ccc(CNC(=O)c2c3n(c(=O)n2-c2cccc(OC)c2)CCN(C(=O)c2ccc(Br)c(Cl)c2)C3)cc1 [Example 21, 7-(4-bromo-3-chloro-benzoyl)-2-(3-methoxyphenyl)-N-[(4-methoxyphenyl)methyl]-3-oxo-6,8-dihydro-5H-imidazo[1,5-a]pyrazine-1-carboxamide] | 5.30 to 6.30
16 | O=C(NCc1c(F)cccc1-n1cccn1)c1c2n(c(=O)n1-c1ccc(OC3CC3)cc1)CCN(C(=O)c1ccc(Br)c(Cl)c1)C2 [Example 435, 7-(4-bromo-3-chloro-benzoyl)-2-[4-(cyclopropoxy)phenyl]-N-[(2-fluoro-6-pyrazol-1-yl-phenyl)methyl]-3-oxo-6,8-dihydro-5H-imidazo[1,5-a]pyrazine-1-carboxamide] | > 7.00
17 | O=C(NCc1ccccc1)c1c2n(c(=O)n1-c1ccc(-n3ccnc3)cc1)CCN(C(=O)c1ccc(Br)c(Cl)c1)C2 [Example 312, N-benzyl-7-(4-bromo-3-chloro-benzoyl)-2-(4-imidazol-1-ylphenyl)-3-oxo-6,8-dihydro-5H-imidazo[1,5-a]pyrazine-1-carboxamide] | 5.30 to 6.30
18 | COc1ccc(-n2c(-c3ccccc3)c3n(c2=O)CCN(C(=O)c2ccc(Cl)c(Cl)c2)C3)cc1 [Example 74, 7-(3,4-dichlorobenzoyl)-2-(4-methoxyphenyl)-1-phenyl-6,8-dihydro-5H-imidazo[1,5-a]pyrazin-3-one] | < 5.30
19 | CC(C)(C)Oc1ccc(-n2c(C(=O)NCc3ccccc3)c3n(c2=O)CCN(C(=O)c2ccc(Br)c(Cl)c2)C3)cc1 [Example 396, N-benzyl-7-(4-bromo-3-chloro-benzoyl)-2-(4-tert-butoxyphenyl)-3-oxo-6,8-dihydro-5H-imidazo[1,5-a]pyrazine-1-carboxamide] | 6.30 to 7.00
20 | COc1ccc(-n2c(C(=O)NCc3ccc(OC)c(C)c3)c3n(c2=O)CCN(C(=O)c2ccc(Cl)c(Cl)c2)C3)cc1 [Example 89, 7-(3,4-dichlorobenzoyl)-N-[(4-methoxy-3-methyl-phenyl)methyl]-2-(4-methoxyphenyl)-3-oxo-6,8-dihydro-5H-imidazo[1,5-a]pyrazine-1-carboxamide] | 5.30 to 6.30
21 | NC(=O)COc1ccc(CNC(=O)c2c3n(c(=O)n2-c2ccc(OCC(F)(F)F)cc2)CCN(C(=O)c2ccc(Br)c(Cl)c2)C3)c(F)c1 [Example 303, N-[[4-(2-amino-2-oxo-ethoxy)-2-fluoro-phenyl]methyl]-7-(4-bromo-3-chloro-benzoyl)-3-oxo-2-[4-(2,2,2-trifluoroethoxy)phenyl]-6,8-dihydro-5H-imidazo[1,5-a]pyrazine-1-carboxamide] | 5.30 to 6.30
22 | COc1ccc(-n2c(C(=O)Nc3ccccc3)c3n(c2=O)CCN(C(=O)c2ccc(Cl)c(Cl)c2)C3)cc1 [Example 83, 7-(3,4-dichlorobenzoyl)-2-(4-methoxyphenyl)-3-oxo-N-phenyl-6,8-dihydro-5H-imidazo[1,5-a]pyrazine-1-carboxamide] | < 5.30
23 | COc1ccc(-n2c(C(=O)NCc3ccccc3)c3n(c2=O)CCN(C(=O)c2ccc(Br)c(Cl)c2)C3)cc1 [Example 24, N-benzyl-7-(4-bromo-3-chloro-benzoyl)-2-(4-methoxyphenyl)-3-oxo-6,8-dihydro-5H-imidazo[1,5-a]pyrazine-1-carboxamide] | 6.30 to 7.00
24 | C[C@H]1CN(Cc2ccccc2)C(=O)c2c3n(c(=O)n2C1)CCN(C(=O)c1ccc(Br)c(Cl)c1)C3 (stereo in doubt) [Example 98, rac-((1S)-13-benzyl-4-(4-bromo-3-chloro-benzoyl)-11-methyl-4,7,9,13-tetrazatricyclo[7.5.0.0^2,7]tetradec-1-ene-8.14-dione] | 5.30 to 6.30
25 | O=C(NCc1ccccc1)c1c2n(c(=O)n1-c1ccc(Cl)cc1)CCN(C(=O)c1ccc(Br)c(Cl)c1)C2 [Example 26, N-benzyl-7-(4-bromo-3-chloro-benzoyl)-2-(4-chlorophenyl)-3-oxo-6,8-dihydro-5H-imidazo[1,5-a]pyrazine-1-carboxamide] | 5.30 to 6.30
26 | O=C(NCc1ccccc1-c1ccccn1)c1c2n(c(=O)n1-c1ccc(OC3CC3)cc1)CCN(C(=O)c1ccc(Br)c(Cl)c1)C2 [Example 369, 7-(4-bromo-3-chloro-benozyl)-2-[4-(cyclopropoxy)phenyl]-3-oxo-N-[[2-(2-pyridyl)phenyl]methyl]-6,8-dihydro-5H-imidazo[1,5-a]pyrazine-1-carboxamide] | > 7.00
27 | Cc1ccc(-n2c(C(=O)NCc3ccccc3)c3n(c2=O)CCN(C(=O)c2ccc(Br)c(Cl)c2)C3)cc1 [Example 123, N-benzyl-7-(4-bromo-3-chloro-benzoyl)-3-oxo-2-(p-tolyl)-6,8-dihydro-5H-imidazo[1,5-a]pyrazine-1-carboxamide] | 6.30 to 7.00
